Results taken from PMC13172357 (Nature Communications, 2026).

How the values were obtained:
[1] = target: T1, human USP7 full length protein (Homo sapiens, UniProt Q93009); experiment: USP7 inhibition assay (Ubiquitin-Rhodamine110Gly cleavage); assay type: biochemical; conditions: Ub-RhoG cleavage, read-out: IC50 (half-maximal inhibition)
T1 construct: human USP7 full length protein
Description: USP7 inhibitors in DMSO were diluted in UbR buffer (40 mM Tris-HCl pH 8, 150 mM NaCl, 1 mM TCEP, 0.1 mg/mL BSA, 0.01% Tween20) to a concentration of 80 μM (4x). This stock was then further diluted in an 11-times serial dilution in UbR buffer containing 4% DMSO (4x). To this was added the same volume of human USP7 full length protein[59] […] The assay was initiated upon addition of 10 μL per well of Ubiquitin-Rhodamine110Gly (Ub-RhoG) (100 nM in UbR buffer, 2x). […] Normalization was carried out using samples featuring either no inhibitor or no enzyme as respective controls. […] Slopes of fluorescence over time curves were determined with Microsoft Excel through linear regression using the first 15 min of each measurement.

[2] = system: proteins enriched from Panc89 lysate; experiment: Competitive pulldown with NK264-functionalized beads, mass spectrometry; assay type: binding, human; conditions: 10 µM competitor
Description: The next steps were carried out at room temperature unless noted otherwise. Afterwards, the samples were mixed shortly (1 min, 1000 rpm) and collected by short centrifugation (10 s, 200 ×g). Protein binding was induced by the addition of an equal volume of pure ethanol (10 min, 1000 rpm), the beads were collected by a brief centrifugation step (10 s, 200 ×g) and the plate was placed on a magnetic stand. Beads were allowed to bind for at least 5 min before the supernatant was removed. The beads were then taken up in 180 µL 80% ethanol and transferred to a fresh multiwell plate.
Samples were incubated at 37 °C for 19 h while shaking (1300 rpm). On the next day, the samples were briefly centrifuged (10 s, 200 ×g) and placed on a magnet for 5 min. The clear solution containing the tryptic peptides was transferred to a fresh multiwell plate. The beads were taken up in 47 µL 25 mM ammonium bicarbonate and incubated while shaking (10 min, 1000 rpm).

[3] = target: HiBiT-USP7 (Homo sapiens, UniProt Q93009); experiment: HiBiT USP7 degradation assay, MV4-11 cells; assay type: cell-based; conditions: MV4-11 HiBiT-USP7, 6 h and 24 h
Sequence of HiBiT-USP7 (Q93009 whole entry, the tested form may be a part): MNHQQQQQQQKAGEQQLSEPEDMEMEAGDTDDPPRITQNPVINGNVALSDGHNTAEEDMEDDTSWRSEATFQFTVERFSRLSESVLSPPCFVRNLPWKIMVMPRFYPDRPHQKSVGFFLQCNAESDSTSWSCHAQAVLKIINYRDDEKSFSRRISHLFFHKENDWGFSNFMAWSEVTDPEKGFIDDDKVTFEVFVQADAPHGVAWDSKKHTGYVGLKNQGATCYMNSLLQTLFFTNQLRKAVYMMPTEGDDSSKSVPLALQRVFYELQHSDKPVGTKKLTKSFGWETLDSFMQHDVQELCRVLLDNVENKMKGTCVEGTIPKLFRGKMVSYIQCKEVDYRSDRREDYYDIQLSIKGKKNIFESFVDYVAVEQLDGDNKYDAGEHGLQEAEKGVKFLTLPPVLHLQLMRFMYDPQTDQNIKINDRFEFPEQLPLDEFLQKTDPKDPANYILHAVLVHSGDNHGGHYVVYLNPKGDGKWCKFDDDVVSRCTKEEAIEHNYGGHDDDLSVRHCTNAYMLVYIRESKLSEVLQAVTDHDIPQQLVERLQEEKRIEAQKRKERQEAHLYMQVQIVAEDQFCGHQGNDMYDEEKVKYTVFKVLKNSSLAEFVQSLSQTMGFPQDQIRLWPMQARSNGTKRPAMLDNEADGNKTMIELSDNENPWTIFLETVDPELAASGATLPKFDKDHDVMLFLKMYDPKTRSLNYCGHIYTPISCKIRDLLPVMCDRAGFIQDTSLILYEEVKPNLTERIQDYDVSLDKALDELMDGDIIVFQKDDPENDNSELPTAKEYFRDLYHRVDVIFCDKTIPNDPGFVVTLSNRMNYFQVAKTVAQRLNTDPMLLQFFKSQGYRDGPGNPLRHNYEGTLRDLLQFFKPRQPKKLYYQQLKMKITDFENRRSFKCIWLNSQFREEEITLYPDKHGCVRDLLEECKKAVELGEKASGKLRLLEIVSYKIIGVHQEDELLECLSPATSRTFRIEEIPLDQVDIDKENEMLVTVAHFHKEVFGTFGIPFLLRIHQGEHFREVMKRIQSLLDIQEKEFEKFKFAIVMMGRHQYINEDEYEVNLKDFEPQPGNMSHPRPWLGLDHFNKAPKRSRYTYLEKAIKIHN
Description: HiBiT-USP7 construct was cloned by extraction of USP7 fragment from plasmid pQHA-USP7 WT puroR (Addgene #46753) using appropriate restriction sites. The USP7 fragment was then ligated into the pRRL-PGK-HiBiT entry vector to generate the plasmid.
Lentiviral infection was used to generate stable a MV4-11 HiBiT cell line. Lentivirus was produced using plasmids psPAX2, pMD2.G, and HiBiT-USP7 plasmid in HEK293 cells. MV4-11 cells were infected with filtered virus supernatant and selected after 48 h of infection for the generation of the stable MV4-11^HiBiT-USP7 cell line.
The assay was performed as described previously. Briefly, MV4-11^HiBiT-USP7 cells were seeded and treated with compounds for the indicated time. Nano-Glo HiBiT Lytic Detection System (Promega) was used for the assay and luminescence was measured on a Tecan Spark microplate reader (Tecan). DC50 values were calculated using the sigmoidal dose-response (four parameters) equation in GraphPad Prism and are given as the concentration where 50% of the total signal was remaining. Dmax values are given as the maximum degradation observed at any concentration.

[4] = system: Panc89 cells; experiment: Total proteome analysis, DDA mass spectrometry, Panc89 cells; assay type: cell-based, H. sapiens; conditions: DDA Panc89, 5 µM, 6, 24 or 72 h
Description: Following treatment, cells were harvested, washed twice with PBS, and pellets were flash frozen in liquid nitrogen before being stored at −80 °C. Samples were prepared using the single-pot, solid-phase-enhanced sample-preparation (SP3) strategy. All buffers and solutions were prepared with mass spectrometry (MS)-grade water (Honeywell). Cell pellets were taken up in 100 µL 1x sample buffer (50 mM Hepes pH 8.0, 1% (wt/v) SDS, 1% (v/v) NP-40, 10 mM TCEP, 40 mM chloroacetamide) and samples were heated at 90 °C for 5 min prior to sonication with a Bioruptor UCD-300 (Diagenode) for ten cycles of 1 min pulse and 30 s pause at high power. The samples were then supplemented with Benzonase (20 U/sample) and sonified for 5 min in a water bath (Bandelin) followed by 30 min incubation at […].
The protein extracts were then centrifuged (20000 ×g, RT, 40 min) and the protein concentration of the cleared lysates was determined using the Pierce 660 nm Protein Assay Reagent (#22660; Thermo Scientific) with the Ionic Detergent Compatibility Reagent (#22663; Thermo Scientific) according to the manufacturers’ instructions. Next, 15 µg of total protein per sample in a volume of 100 µL sample buffer was transferred to a 500 µL 96-well plate and treated with 7 U of benzonase (#71206; Merck Millipore) in dilution buffer (20 mM Hepes pH 8.0, 2 mM MgCl2) at 37 °C for 30 min with agitation at 1500 rpm. After Benzonase treatment samples were heated to 90 °C for 5 min and after cooling down to room temperature, iodoacetamide to a final concentration of 10 mM was added for complete alkylation of cysteines (37 °C, 15 min, 1000 rpm, in the dark).
Then, 3 µL of a 50 µg/µL 1:1 mixture of hydrophilic (#45152105050250) and hydrophobic (#65152105050250) carboxylate modified Sera-Mag SpeedBeads (Cytiva), that were washed twice with MS-grade water, were added to the samples. The next steps were carried out at room temperature unless noted otherwise. Afterwards, the samples were mixed shortly (1 min, 1000 rpm) and collected by short centrifugation (10 s, 200 ×g). […]

[5] = system: Panc89 cells; experiment: Confluence measurement (cell growth), Panc89; assay type: cell-based, human; conditions: Panc89, 1-10 µM, 72 h, 25 mM or 5 mM D-glucose
[6] = system: Ma-Mel-47 USP7 K.O. cells; experiment: Medium color switch (images), Ma-Mel-47 USP7 K.O. cells; assay type: cell-based, human; conditions: Ma-Mel-47 USP7-KO, 72 h, 5 µM NK192, 10 µM FT671, 1 µM NK266

T1 sequence (Q93009 whole entry): as the sequence (Q93009 whole entry, the tested form may be a part) above

C[C@H](CC(=O)N1CCC(O)(Cn2cnc3c(cnn3-c3ccc(F)cc3)c2=O)CC1)c1ccccc1 [NK192]
IC50 [1]: 20 nM
Proteome-wide target specificity (in words) [2]: very high specificity for USP7
HiBiT-USP7 levels (in words) [3]: partial reduction of USP7 levels
USP7 protein level changes (in words) [4]: did not lead to USP7 protein level changes beyond the significance threshold
Cell growth (in words) [5]: not affected
Change of media color (in words) [6]: the same change of media color
